Measured values: PubChem BioAssay (NCI)
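Each compound was tested at five concentrations against cells in 96-well plates for 48 hours. Here, GI50 denotes the concentration required for 50% inhibition of growth. The concentration for full growth arrest is given as TGI.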

Legend:
Assay in all cases: NCI anticancer screen, dose series, 48 h
[1] = system: IGROV1 ovarian
[2] = system: MDA-MB-231 breast
[3] = system: MALME-3M melanoma
[4] = system: PC-3 prostate
[5] = system: OVCAR-8 ovarian
[6] = system: HCC-2998 colon
[7] = system: OVCAR-3 ovarian
[8] = system: HL-60(TB) leukemia
[9] = system: MCF7 breast
[10] = system: OVCAR-5 ovarian
[11] = system: DU-145 prostate
[12] = system: SNB-75 CNS
[13] = system: SF-268 CNS
[14] = system: HT29 colon
[15] = system: HCT-116 colon
[16] = system: SN12C renal
[17] = system: RXF 393 renal
[18] = system: SR leukemia
[19] = system: RPMI-8226 leukemia
[20] = system: HOP-62 NSCLC
[21] = system: 786-0 renal
[22] = system: NCI-H23 lung
[23] = system: T-47D breast
[24] = system: U251 CNS
[25] = system: UO-31 renal
[26] = system: BT-549 breast
[27] = system: CCRF-CEM leukemia
[28] = system: HS 578T breast
[29] = system: TK-10 renal
[30] = system: NCI-H460 lung
[31] = system: NCI-H522 lung
[32] = system: UACC-62 melanoma
[33] = system: SK-MEL-2 melanoma
[34] = system: M14 melanoma
[35] = system: SF-539 CNS
[36] = system: NCI/ADR-RES ovarian
[37] = system: SW-620 colon
[38] = system: OVCAR-4 ovarian
[39] = system: SNB-19 CNS
[40] = system: CAKI-1 renal
[41] = system: EKVX NSCLC
[42] = system: HCT-15 colon
[43] = system: SF-295 CNS
[44] = system: K-562 leukemia
[45] = system: LOX IMVI melanoma
[46] = system: MDA-MB-435
[47] = system: A549 NSCLC
[48] = system: UACC-257 melanoma
[49] = system: SK-MEL-5 melanoma
[50] = system: MOLT-4 leukemia
[51] = system: ACHN renal
[52] = system: HOP-92 NSCLC
[53] = system: KM12 colon
[54] = system: SK-MEL-28 melanoma

SMILES: C=C1CC[C@@H]2C(C)(C)[C@H](O)CC[C@@]2(C)[C@@H]1COc1ccc2ccc(=O)oc2c1
- GI50 [1]: 27.7 µM
- TGI [1]: > 100 µM
- GI50 [2]: 30.4 µM
- TGI [2]: > 100 µM
- GI50 [3]: 20.3 µM
- TGI [3]: 64.2 µM
- GI50 [4]: 19.7 µM
- TGI [4]: 66.3 µM
- GI50 [5]: 24.2 µM
- TGI [5]: 71 µM
- GI50 [6]: 42.3 µM
- TGI [6]: > 100 µM
- GI50 [7]: 22.3 µM
- TGI [7]: 56 µM
- GI50 [8]: 24.1 µM
- TGI [8]: 57.6 µM
- GI50 [9]: 24.3 µM
- TGI [9]: 80.8 µM
- GI50 [10]: 38.2 µM
- TGI [10]: > 100 µM
- GI50 [11]: 30.1 µM
- TGI [11]: > 100 µM
- TGI [12]: 46.3 µM
- GI50 [13]: 28.4 µM
- TGI [13]: 90.6 µM
- GI50 [14]: 32.3 µM
- TGI [14]: > 100 µM
- GI50 [15]: 26 µM
- TGI [15]: 81.4 µM
- GI50 [16]: 28.2 µM
- TGI [16]: > 100 µM
- GI50 [17]: 20.4 µM
- TGI [17]: 79.5 µM
- GI50 [18]: 40 µM
- TGI [18]: > 100 µM
- GI50 [19]: 15.6 µM
- TGI [19]: 51.9 µM
- GI50 [20]: 28.2 µM
- TGI [20]: > 100 µM
- GI50 [21]: 25 µM
- TGI [21]: 68 µM
- GI50 [22]: 24.5 µM
- TGI [22]: 70.1 µM
- GI50 [23]: 14.6 µM
- TGI [23]: 64.1 µM
- GI50 [24]: 27.5 µM
- TGI [24]: > 100 µM
- TGI [25]: 38.4 µM
- GI50 [26]: 20.6 µM
- TGI [26]: 64.1 µM
- GI50 [27]: 28.4 µM
- TGI [27]: > 100 µM
- GI50 [28]: 25.1 µM
- TGI [28]: 86.8 µM
- GI50 [29]: 35.6 µM
- TGI [29]: > 100 µM
- GI50 [30]: 26.5 µM
- TGI [30]: 71.1 µM
- GI50 [31]: 21.2 µM
- TGI [31]: 77.4 µM
- TGI [32]: 48.4 µM
- GI50 [33]: 23.9 µM
- TGI [33]: 65.3 µM
- GI50 [34]: 22.5 µM
- TGI [34]: 55.5 µM
- GI50 [35]: 29.9 µM
- TGI [35]: > 100 µM
- GI50 [36]: 22.9 µM
- TGI [36]: 62.7 µM
- GI50 [37]: 34.5 µM
- TGI [37]: > 100 µM
- GI50 [38]: 17.2 µM
- TGI [38]: 56.6 µM
- GI50 [39]: 33.7 µM
- TGI [39]: > 100 µM
- GI50 [40]: 23.2 µM
- TGI [40]: 74.5 µM
- GI50 [41]: 29 µM
- TGI [41]: > 100 µM
- GI50 [42]: 27 µM
- TGI [42]: > 100 µM
- GI50 [43]: 21.3 µM
- TGI [43]: 62.4 µM
- GI50 [44]: 26.9 µM
- TGI [44]: > 100 µM
- GI50 [45]: 23.3 µM
- TGI [45]: 56.5 µM
- GI50 [46]: 25.3 µM
- TGI [46]: 72.3 µM
- GI50 [47]: 21.9 µM
- TGI [47]: 60 µM
- GI50 [48]: 26.9 µM
- TGI [48]: 69.5 µM
- GI50 [49]: 17.9 µM
- TGI [49]: 37 µM
- GI50 [50]: 23.9 µM
- TGI [50]: 62 µM
- GI50 [51]: 31.6 µM
- TGI [51]: > 100 µM
- GI50 [52]: 12.5 µM
- TGI [52]: 70.5 µM
- GI50 [53]: 21.1 µM
- TGI [53]: 51 µM
- GI50 [54]: 28.7 µM
- TGI [54]: 80.6 µM
